{"source": "patent US20250387359A1", "about": "“COMPOUNDS AND METHODS FOR THE TREATMENT OF PARASITIC INFECTIONS” (THE BOARD OF TRUSTEES OF THE UNIVERSITY OF ILLINOIS, priority 2019, published 2025)", "key": {"Tolerability in mice": {"experiment": "Tolerability in mice", "assay_type": "in vivo", "details": "B6.129S7-Ifng (gamma interferon knockout), mouse, in vivo, po, 7 days", "procedure": "In vivo testing of the anti-Cryptosporidium effect of CpLDH inhibitors. Gamma interferon knockout mice (B6.129S7-Ifng), 8 weeks of age, were purchased from Charles River, USA. The care and use of the mice was done following the guidelines of protocol number 17024 approved by the University of Illinois at Urbana-Champaign, USA. The animals were allowed to acclimatize for 1 week before experiments commenced. Stock solutions of recombinant CpLDH inhibitors reconstituted in DMSO were diluted in sterile distilled water to reduce the final amount of DMSO in the solution to less than 1% (v/v) before administering them to mice. Prior to testing the anti-Cryptosporidium effect of the inhibitors in mice, the tolerability of each inhibitor was tested by oral gavage using varying dosages (100-2000 mg/kg body weight) of each inhibitor in groups of mice (three mice for each dose) daily for 7 days. Mice were observed daily for signs of toxicity including changes from normal physical activity, respiration, body temperature, feeding, posture, fur condition or occurrence of death. […] An equivalent volume of PBS containing a cocktail of penicillin (100 units/ml), streptomycin (100 μg/ml), chloramphenicol (34 μg/ml) and amphotericin (0.25 μg/ml) was added to the fecal samples and stored at 4° C. until use for quantification of C. parvum genomic DNA load. […]"}, "[1]": {"target": "recombinant CpLDH protein (Cryptosporidium parvum, UniProt Q9GT92, F198L/K295E/R251K)", "sequence (Q9GT92 whole entry F198L/K295E/R251K)": "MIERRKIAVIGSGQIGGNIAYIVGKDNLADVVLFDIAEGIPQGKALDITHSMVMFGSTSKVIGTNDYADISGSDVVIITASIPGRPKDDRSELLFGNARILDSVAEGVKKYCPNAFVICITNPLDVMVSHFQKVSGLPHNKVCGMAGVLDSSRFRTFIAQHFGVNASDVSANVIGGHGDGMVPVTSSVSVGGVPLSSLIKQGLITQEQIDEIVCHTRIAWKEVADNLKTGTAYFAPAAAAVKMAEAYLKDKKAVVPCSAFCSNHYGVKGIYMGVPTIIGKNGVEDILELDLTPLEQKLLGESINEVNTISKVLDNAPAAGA", "experiment": "biochemical", "assay_type": "biochemical", "procedure": "Biochemical assays. The coding sequence of CpLDH was cloned from cDNA prepared from the AUCP-1 isolate of C. parvum, and the His-tagged CpLDH recombinant protein expressed in Escherichia coli, and purified in native form essentially as previously described (Int. J. Parasitol. 2017; 47(13), 867-874). Briefly, cDNA was prepared from total RNA extracted from the AUCP-1 isolate of C. parvum, and the coding sequencing of CpLDH (Genebank accession number AF274310.1) was PCR-amplified from the cDNA using a primer pair with a XhoI restriction site and a BamHI site. The PCR amplicon was cloned at the XhoI/BamHI site of the pET15b expression vector in-frame with the hexahistidine (His-tag) at the N-terminal and sequenced to confirm identity. The recombinant expression vector was transformed into protein expression E. coli BL21-CodonPlus-DE3-RIL (Stratagene). Transformed E. coli was cultured at 37° C. in Luria broth medium (supplemented with 100 μg/ml ampicillin and 34 μg/ml chloramphenicol) to an A600 of 0.8 followed by addition of 1 mM isopropyl-β-d-thiogalactopyranoside to induce protein expression. The expression E. coli was harvested and lysed under native conditions by sonicating in lysis buffer (50 mM NaH2PO4, 300 mM NaCl, 10 mM Imidazole, pH 8.0) containing a 1× EDTA-free protease inhibitor cocktail, 600 units benzonase and 30 kU lysozyme (EMD Millipore). The lysate was clarified by centrifugation and the His-tagged recombinant protein purified under native conditions by nickel-affinity chromatography according to the manufacturer's instructions (Novagen). The wash buffer used contained 50 mM NaH2PO4, 300 mM NaCl and 20 mM Imidazole, pH 8.0, while the elution buffer was composed of 50 mM NaH2PO4, 300 mM NaCl, 250 mM Imidazole, pH 8.0. The eluate was dialyzed using a buffer containing 5 mM Hepes-KOH (pH 7.8) and 0.5 mM DTT. The purity of the recombinant protein was determined by SDS/PAGE, and the concentration measured using a Qubit 3.0 fluorometer (Life technologies). […] On the other hand, the catalytic activity of CpLDH recombinant protein for the oxidation of lactate to pyruvate was determined by measuring the change in optical density of a 100 μl reaction mixture containing 100 mM lactate, 1 mM NAD^+, 100 mM Tris, pH 9.2, with varying concentrations of CpLDH recombinant protein at 25° C. […] In all assays, reaction mixtures without recombinant CpLDH protein were included as negative controls. All assays were performed in triplicate and repeated at least thrice. The change in optical density was measured every 15 seconds for a total of 2 minutes using a Spectra Max 384 Plus plate reader (Molecular Devices) at a wavelength of 340 nm.\nScreening compounds for inhibitory activity against CpLDH. The chemical compounds were obtained from the National Cancer Institute/Developmental Therapeutics Program Open Chemical Repository. They consisted of a diverse set of compounds (n=27) reported previously (Int J Parasitol Drugs Drug Resist. 2016; 6(1), 44-53), and a Mechanistic Set IV compounds (n=800). The compounds were reconstituted in dimethyl sulfoxide (DMSO) as stock solutions. Just before use, aliquots of the stock solutions were diluted in sterile distilled water to generate working solutions, such that the final amount of DMSO added to the reaction mixtures was less than 1% (V/V). The compounds were tested for their inhibitory effect against the enzymatic activity of recombinant His-tagged CpLDH for catalyzing the reduction of pyruvate to lactate. […] Control reactions without recombinant CpLDH protein were included. Reactions were performed in triplicate and repeated at least thrice. The change in optical density was measured every 15 seconds for a total of 2 minutes using a Spectra Max 384 Plus plate reader (Molecular Devices) at a wavelength of 340 nm."}}}
{"smiles": "O=C1c2ccccc2C(=O)c2c(O)c(O)cc(O)c21", "note": "[NSC10447]", "values": [{"measurement": "highest tolerable dose (no toxicity signs)", "setting": "Tolerability in mice", "result": 1000, "unit": "mg/kg"}, {"measurement": "IC50", "setting": "[1]", "result": 46.3, "unit": "µM"}, {"measurement": "effect on catalytic activity of recombinant CpLDH", "setting": "[1]; 20 μM compound, 10 mM pyruvate, 1 mM NADH", "result": "significant (P<0.05) inhibitory effect"}]}
